The source made the active and inactive calls.
How the values were obtained:
[1] = target: T1, Sentrin-specific protease 8 (Homo sapiens, UniProt Q96LD8); test: inhibition of human SENP8 cleavage activity – biochemical, luminescence, SAR follow-up (AID 504501); format: functional
T1 sequence (Q96LD8 whole entry): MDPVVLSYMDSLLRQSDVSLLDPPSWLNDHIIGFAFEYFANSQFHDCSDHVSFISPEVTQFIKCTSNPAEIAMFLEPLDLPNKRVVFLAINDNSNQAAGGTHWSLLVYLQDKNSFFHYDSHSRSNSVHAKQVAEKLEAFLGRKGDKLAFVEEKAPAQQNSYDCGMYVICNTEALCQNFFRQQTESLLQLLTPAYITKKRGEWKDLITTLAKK

Caspase-3 = target: T2, Caspase-3 (Homo sapiens, UniProt P42574); test: SAR Analysis of small molecule inhibitors of Sentrin-specific proteases (SENPs) using a Caspase-3 Selectivity assay. [Related pubchem assays (depositor defined):AID2540, AID2599, AID434973, AID489001]; format: functional
T2 sequence (P42574 whole entry): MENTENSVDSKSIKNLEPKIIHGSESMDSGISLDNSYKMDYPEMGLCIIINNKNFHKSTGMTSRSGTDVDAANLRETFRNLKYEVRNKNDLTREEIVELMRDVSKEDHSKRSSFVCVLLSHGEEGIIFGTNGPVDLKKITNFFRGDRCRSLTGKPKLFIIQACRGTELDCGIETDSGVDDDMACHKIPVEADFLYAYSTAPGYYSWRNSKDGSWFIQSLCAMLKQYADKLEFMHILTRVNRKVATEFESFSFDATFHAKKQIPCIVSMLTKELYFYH

[2] = target: T3, Sentrin-specific protease 6 (Homo sapiens, UniProt Q9GZR1); test: SAR Analysis of small molecule inhibitors of Sentrin-specific protease 6 (SENP6) using a Luminescent assay. [Related pubchem assays (depositor defined):AID2582, AID2599]; format: functional
T3 sequence (Q9GZR1 whole entry): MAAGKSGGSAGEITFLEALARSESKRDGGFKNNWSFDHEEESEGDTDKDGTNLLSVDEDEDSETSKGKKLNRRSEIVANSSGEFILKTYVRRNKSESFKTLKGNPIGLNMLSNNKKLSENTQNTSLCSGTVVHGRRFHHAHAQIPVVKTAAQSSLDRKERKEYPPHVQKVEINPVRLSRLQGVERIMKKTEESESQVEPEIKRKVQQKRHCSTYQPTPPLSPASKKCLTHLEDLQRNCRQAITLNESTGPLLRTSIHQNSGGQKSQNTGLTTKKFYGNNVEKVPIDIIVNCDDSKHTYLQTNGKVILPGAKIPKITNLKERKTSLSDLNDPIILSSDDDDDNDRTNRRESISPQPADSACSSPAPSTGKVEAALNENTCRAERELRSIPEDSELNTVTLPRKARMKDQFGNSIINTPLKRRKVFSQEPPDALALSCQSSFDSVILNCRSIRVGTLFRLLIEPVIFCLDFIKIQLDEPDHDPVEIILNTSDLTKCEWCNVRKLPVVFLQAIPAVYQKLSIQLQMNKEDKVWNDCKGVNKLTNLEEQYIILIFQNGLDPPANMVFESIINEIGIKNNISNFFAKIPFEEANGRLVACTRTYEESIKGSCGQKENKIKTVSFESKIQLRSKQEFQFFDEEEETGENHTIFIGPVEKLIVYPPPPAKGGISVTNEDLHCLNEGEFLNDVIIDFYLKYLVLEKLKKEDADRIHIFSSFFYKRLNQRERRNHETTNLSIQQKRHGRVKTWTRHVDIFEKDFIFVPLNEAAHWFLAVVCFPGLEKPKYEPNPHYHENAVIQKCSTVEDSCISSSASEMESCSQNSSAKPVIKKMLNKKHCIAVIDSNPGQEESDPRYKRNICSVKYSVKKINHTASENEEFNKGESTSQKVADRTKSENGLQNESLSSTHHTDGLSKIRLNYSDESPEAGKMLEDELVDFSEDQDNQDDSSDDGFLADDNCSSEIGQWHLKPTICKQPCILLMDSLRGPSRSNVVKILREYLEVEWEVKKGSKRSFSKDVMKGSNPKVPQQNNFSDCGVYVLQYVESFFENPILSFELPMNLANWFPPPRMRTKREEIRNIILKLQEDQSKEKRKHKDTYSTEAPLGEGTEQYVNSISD

[3] = target: T4, Sentrin-specific protease 7 (Homo sapiens, UniProt Q9BQF6); test: inhibition of human SENP7 cleavage activity – biochemical, luminescence, SAR follow-up (AID 504497); format: functional
T4 sequence (Q9BQF6 whole entry): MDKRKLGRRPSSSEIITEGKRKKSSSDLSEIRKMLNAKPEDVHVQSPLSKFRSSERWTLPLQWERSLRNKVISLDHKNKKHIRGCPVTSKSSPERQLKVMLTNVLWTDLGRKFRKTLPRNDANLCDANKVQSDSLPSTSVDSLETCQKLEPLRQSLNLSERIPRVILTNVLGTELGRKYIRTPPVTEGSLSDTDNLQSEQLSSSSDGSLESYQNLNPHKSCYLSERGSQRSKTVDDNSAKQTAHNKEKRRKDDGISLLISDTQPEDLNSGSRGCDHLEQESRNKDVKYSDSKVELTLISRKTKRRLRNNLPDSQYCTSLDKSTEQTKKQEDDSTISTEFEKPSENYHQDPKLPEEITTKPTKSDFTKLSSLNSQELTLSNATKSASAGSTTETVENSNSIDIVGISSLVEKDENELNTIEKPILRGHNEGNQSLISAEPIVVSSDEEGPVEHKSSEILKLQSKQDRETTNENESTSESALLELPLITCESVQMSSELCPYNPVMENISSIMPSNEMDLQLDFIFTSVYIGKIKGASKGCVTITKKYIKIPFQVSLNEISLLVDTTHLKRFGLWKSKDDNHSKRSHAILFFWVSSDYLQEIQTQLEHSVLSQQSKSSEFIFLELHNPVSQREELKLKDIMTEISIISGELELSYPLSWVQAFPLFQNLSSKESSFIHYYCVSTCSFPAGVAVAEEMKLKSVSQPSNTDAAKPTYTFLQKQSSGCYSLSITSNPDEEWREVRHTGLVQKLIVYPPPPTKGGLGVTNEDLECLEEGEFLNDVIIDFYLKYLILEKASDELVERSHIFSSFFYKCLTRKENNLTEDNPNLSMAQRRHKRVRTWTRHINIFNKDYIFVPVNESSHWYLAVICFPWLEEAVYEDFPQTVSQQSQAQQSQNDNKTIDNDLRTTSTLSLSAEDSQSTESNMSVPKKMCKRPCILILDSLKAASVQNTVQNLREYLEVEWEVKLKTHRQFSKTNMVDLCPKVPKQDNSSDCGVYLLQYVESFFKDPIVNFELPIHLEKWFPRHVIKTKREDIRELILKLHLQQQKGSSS

Insulin-degrading enzyme [4] = target: T5, Insulin-degrading enzyme (Homo sapiens, UniProt P14735); test: recombinant IDE activation, cell-free – biochemical, fluorescence polarization, counter-screen for IDE activator project, dose response (AID 588681)
T5 sequence (P14735 whole entry): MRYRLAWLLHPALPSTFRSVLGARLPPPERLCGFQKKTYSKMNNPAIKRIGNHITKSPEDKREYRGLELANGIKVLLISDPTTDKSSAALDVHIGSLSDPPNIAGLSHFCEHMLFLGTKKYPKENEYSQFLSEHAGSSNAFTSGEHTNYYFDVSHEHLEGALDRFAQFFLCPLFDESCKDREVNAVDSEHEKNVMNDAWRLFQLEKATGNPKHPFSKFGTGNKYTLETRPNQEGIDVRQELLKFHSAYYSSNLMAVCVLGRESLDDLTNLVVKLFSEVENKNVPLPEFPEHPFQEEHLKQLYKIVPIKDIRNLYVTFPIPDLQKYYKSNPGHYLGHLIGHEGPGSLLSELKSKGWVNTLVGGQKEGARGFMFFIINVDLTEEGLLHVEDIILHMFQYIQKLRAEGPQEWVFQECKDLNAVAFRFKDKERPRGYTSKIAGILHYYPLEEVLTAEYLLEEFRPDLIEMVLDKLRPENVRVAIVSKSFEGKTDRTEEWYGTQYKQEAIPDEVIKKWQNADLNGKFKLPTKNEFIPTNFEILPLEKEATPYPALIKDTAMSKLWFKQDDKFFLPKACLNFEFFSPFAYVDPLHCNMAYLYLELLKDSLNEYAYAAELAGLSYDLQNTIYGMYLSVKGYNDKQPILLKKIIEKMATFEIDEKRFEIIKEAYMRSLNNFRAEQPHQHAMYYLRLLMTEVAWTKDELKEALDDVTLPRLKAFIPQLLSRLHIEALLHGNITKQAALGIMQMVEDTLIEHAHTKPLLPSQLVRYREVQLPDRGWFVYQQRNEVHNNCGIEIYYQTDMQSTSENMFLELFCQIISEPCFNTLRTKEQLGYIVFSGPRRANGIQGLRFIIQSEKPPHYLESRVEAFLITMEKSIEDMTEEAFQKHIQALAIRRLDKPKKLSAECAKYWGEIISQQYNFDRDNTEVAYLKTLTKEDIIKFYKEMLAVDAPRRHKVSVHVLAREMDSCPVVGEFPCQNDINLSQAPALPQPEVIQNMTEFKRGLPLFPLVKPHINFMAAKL

Insulin-degrading enzyme [5] = target: T5, Insulin-degrading enzyme; test: cellular IDE activation of Abeta substrate cleavage – fluorescence polarization, HEK cells, dose response (AID 588439); format: functional, cell-based
HEK293 [6] = test: membrane integrity loss in HEK cells – cell-based, fluorescence, cytotoxicity control for IDE activator project, dose response (AID 588440); format: functional; conditions: Homo sapiens;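 further: cytotoxicity by LDH release measuring loss of membrane integrity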
HEK293 [7] = test: optical interference in Abeta FP readout, dose response, artefact control for IDE activator project, biochemical, fluorescence polarization (AID 588442); format: functional, cell-based; conditions: Homo sapiens

Row | IC50 (Caspase-3) | IC50 [2] | IC50 [3] | SMILES | IC50 [1] | EC50 (Insulin-degrading enzyme [4]) | EC50 (Insulin-degrading enzyme [5]) | IC50 (HEK293 [6]) | EC50 (HEK293 [7])
1 | > 99 µM (inactive) | > 99 µM (inactive) | > 99 µM (inactive) | O=C(Cc1cccc(C(F)(F)F)c1)N(c1ccccc1)c1nc(-c2ccccc2)ns1 | > 99 µM (inactive) | – | – | – | –
2 | – | – | – | C[C@@H]1O[C@@H](O[C@H]2[C@H](O[C@H]3C[C@]4(C)[C@H](CC(O)C5[C@@H]([C@]6(C)CC[C@@H](C(C)(C)O)O6)CC[C@]54C)[C@@]4(C)CC[C@H](O)C(C)(C)C34)O[C@H](CO)[C@@H](O)[C@@H]2O)[C@H](O)[C@H](O)[C@H]1O (stereo partly drawn) | – | > 54.7 µM (inactive) | > 54.7 µM (inactive) | > 89.2 µM (inactive) | > 54.7 µM (inactive)
